Test system: H69: human, small cell lung carcinoma
Test: Apoptosis (Annexin testing system) and defective cells in H69 tumor cells in vitro
Type: cell-based
Settings: 10 days of treatment
Text: The effect of reduced glutathion (G-SH) and anthocyans and betacyans on tumor cell lines, specifically H69: human, small cell lung carcinoma, was examined by in vitro studies, both individually and with various combinations of the ingredient. G-SH and betalain were used in the form of dry extract from beta vulgaris (product: Betatom by Messrs. Sprüh-Atom Schumann & Sohn GmbH, Karlsruhe) and, for purposes of comparison, anthocyans in the form of dry extract from cassis (black currant) and vaccinium (blueberry). The tumor cells were sown in vitro in DMEM with 10% FCS. The final concentration of G-SH, Betatom, cassis and vaccinium, the substances added, was 1 mM. Apoptosis was measured with an Annexin testing system. All tests were repeated once. The effect on H69 tumor cells may be gathered from the table below. After treatment of the cells for ten days, the number both of apoptotic and defective cells was clearly higher in comparison with untreated controls.

[1] = 1 mM, difference to untreated control
[2] = final concentration of substances added 1 mM, DMEM with 10% FCS

N[C@@H](CCC(=O)N[C@@H](CS)C(=O)NCC(=O)O)C(=O)O [GSH, gamma glutamyl cysteinyl glycin]
apoptotic cells: variation compared with control (%) [1]: −5% | defective cells: variation compared with control (%) [1]: 8.9% | apoptotic cells (% of total cells) [2]: 21.9 % of total cells | defective cells (% of total cells) [2]: 37.9 % of total cells
